Measurements as given in patent US11573234B2, “Predicting responders to cyclophosphamide therapy” (Royal Melbourne Institute of Technology, priority 2017, dated 2023).
Read-outs that look alike come from different tables or passages of the source.

What was measured:
[1] = test system: recurrent uterine and ovarian cancers; details: cited from earlier work; for response rates: second line, recurrent disease, cisplatin uterine, carboplatin ovarian cancers
[2] = test system: ID8 tumour bearing animals; details: mouse, in vivo
Procedure: To address the effects of LDCy on immunity in tumour bearing animals, ID8 implanted animals (n=5/group) were treated at post challenge (at the onset of detectable tumour growth in vivo) with one cycle of LDCy and assessed changes in T cell subsets ex-vivo at days 1, 7 and 14 post in vivo treatment by flow cytometry.

[3] = test system: CD107a on CD4+ and CD8+ T cells; details: 3 increased % CCR4 patients; PMA and ionomycin 6 hours
Procedure: The cytotoxic capacity of T cells was determined by culturing PBMCs with complete AIM-V media at 10^6 cells/500 μl/well in a 48 well plate. […] Brefeldin A (eBioscience, USA) was added at 3 μg/ml for the last 4 hours of incubation. After incubation, cells were washed and labelled for surface markers as described above. Cells were analysed using flow cytometry, unstimulated cells, fluorescence minus one (FMO) and isotype matched antibodies were also used as controls. Data were collected and analysed as above.
The frequencies of CD107a+ cells within CD4+ and CD8+ T cells were determined using samples from 3 of the 4 increased % CCR4 patients at one of the time points when CCR4+ T cell frequencies was increased.

[4] = test system: advanced treatment-refractory gynaecological tumours
Procedure: (§1) Ten (10) human patients with gynaecological cancers with ages ranging from 62-82 years were recruited in a bicentric phase II trial. […] Disease progression was determined using RECIST and GCIG CA125 criteria (Rustin G J et al., (2011) Official journal of the International Gynaecological Cancer Society February; 21(2):419-23). From the time of recruitment, written consent was obtained from patients and pre-treatment blood samples were collected. Patients received oral doses of 50 mg cyclophosphamide twice daily (morning and evening), for 3 consecutive days and blood was collected 2 weeks later in EDTA coated tubes for whole blood and serum separation tubes for sera (BD Vacutainer, BD, USA). The treatment cycle and blood sampling were repeated at fortnightly intervals for up to 8 cycles. For healthy samples, buffy coats were obtained from routine blood donations, acquired at the Australian Red Cross Blood Service.

[5] = test system: CCR4 expression on T cells
Procedure: as §1
Peripheral blood mononuclear cells (PBMCs) were isolated within 24 hours of blood collection via Ficoll (Amersham Pharmacia Biotech, Sweden) density gradient centrifugation. Cells were then washed in Dulbecco's Phosphate Buffered Saline (dPBS, Sigma-Aldrich, USA). The isolated PBMCs were frozen down in a freeze medium containing 10% DMSO (Sigma-Aldrich, USA) and 90% heat-inactivated fetal calf serum (GIBCO, Life Technologies, USA) or 90% human AB serum (Sera Laboratories International, UK) at a speed of 1° C./min at −80° C. and subsequently stored in liquid nitrogen. Upon thawing, each vial of frozen PBMCs was quickly defrosted in a 37° C. water-bath and re-suspended in AIM-V media (Life Technologies, USA) with 5% normal human serum (HS, Sigma-Aldrich, USA) (complete AIM-V media).
Cells were then washed twice with stain buffer. […] Data were analysed using Flowjo software (TreeStar, USA).
To investigate the effect of cyclophosphamide on CCR4 expression within T cells, the frequency of CCR4^+ cells pre-treatment (n=mean of 7-8 time points) was compared to the frequencies following each cycle of treatment (n=mean of 3-6 time points) for each individual patient.

[6] = test system: CCR4 expression on T cells in PBMCs; assay: In vitro drug experiment: CCR4 expression on T cells in PBMCs; details: 30 ng/ml, 72 hours
[7] = test system: acetylation of H3K9, H3K14 and H3K18; assay: Histone 3 acetylation detection by flow cytometry; format: cell-based, human; details: 72 hours
Procedure: The acetylation of histone 3 at lysine (H3K)9, H3K14 and H3K18 was assessed using flow cytometry. […] In the last 4 hours of culture, 50 nM panobinostat (LBH589, a pan histone deacetylase (HDAC) inhibitor) was added to the IL-2 cultures. Cells were harvested and prepared for flow cytometry analysis as described above. Following surface labelling, fixation and permeabilisation, cells were labelled with unconjugated anti-H3K9, anti-H3K14 and anti-H3K18 (Cell Signalling Technology, USA). Secondary labelling was performed using an Alexa Fluor 488 conjugated donkey anti-rabbit Ig antibody (Biolegend, USA). Data were collected and analysed as above.

[8] = increased % CCR4 patients at time points of CCR4 increase, p<0.05

O=P1(N(CCCl)CCCl)NCCCO1 (centres unmarked) [cyclophosphamide]
clinical benefit (share of patients) ([1]; low dose, women with recurrent ovarian cancer): 25-44%
CCR4+ CD4 T cell effectors in peripheral blood [2]: a trend towards CCR4^+ CD4 T cell effector increases
CCR4+ Treg in peripheral blood [2]: no increases
CCR4+CD8+ T cells in peripheral blood [2]: clear increases
CD69+ CD4 T cell effectors in TILS [2]: a trend towards CD69^+ CD4 T cell effector increases
CD69+ Treg in TILS [2]: no CD69^+Treg increases
CD69+CD8+ T cells in tumour infiltrating lymphocytes (TILS) [2]: clearly increased
mean frequency of CD107a+ cells in CD4+ and CD8+ populations vs pre-treatment [3]: increased compared to pre-treatment samples, however neither increase was significant
mean overall survival ([4]; CCR4 spike patients (n=4)): 476 ± 80 days
mean overall survival ([4]; CCR4 steady patients (n=6)): 163 ± 37 days
patients who achieved stable disease ([4]; of the 4 CCR4 spike patients): 3
patients who achieved stable disease ([4]; of the 6 CCR4 steady patients): None
increase in survival ([4]; patients with CCR4 up-regulation in vivo and in the in vitro CUP pre-test): > 300 days
survival of CCR4 spike patients relative to CCR4 steady patients ([4]; spike vs steady patients): approximately 3 times
mean ratio of CCR4+ Tconvs to CCR4+ Tregs, increased % CCR4 vs constant % CCR4 patients ([5]; first 3 cycles of treatment, p<0.01): over 2 fold
mean ratio of CCR4+ CD8+ T cells to CCR4+ Tregs, increased % CCR4 vs constant % CCR4 patients ([5]; first 3 cycles of treatment, p<0.05): over 3 fold
frequency of CCR4+ cells within Tregs compared to pre-treatment ([5]; increased % CCR4 patients at time points of CCR4 increase): not significantly increased
fold increase in the frequency of CCR4+ cells within CD8+ T cells compared to pre-treatment [5, 8]: 5 fold
fold increase in the frequency of CCR4+ cells within Tconvs compared to pre-treatment [5, 8]: 5 fold
CCR4 mean fluorescence intensity (MFI) within Tregs, Tconvs and CD8+ T cells relative to pre-treatment ([5]; increased % CCR4 patients, all 3 populations): remained unchanged
patients with significant increases in the frequency of CCR4+ cells within CD3+ T cells ([5]; of the 10 patients, following at least one cycle, within the first 3 cycles): 4

CC(=O)O[C@H]1C(=O)[C@@]2(C)[C@H]([C@H](OC(=O)c3ccccc3)[C@]3(O)C[C@H](OC(=O)[C@H](O)[C@@H](NC(=O)c4ccccc4)c4ccccc4)C(C)=C1C3(C)C)[C@]1(OC(C)=O)CO[C@@H]1C[C@@H]2O [paclitaxel]
frequency of CCR4+ T cells in healthy PBMCs [6]: does not Significantly Increase

N.N.O=C([O-])C1(C(=O)[O-])CCC1.[Pt+2] [carboplatin]
response rates [1]: around 20%

N.N.[Cl][Pt][Cl] [cisplatin]
response rates [1]: around 20%

B1: IL-4: IL-4 (R&D systems, USA), cytokine used at 10 ng/ml (protein, UniProt P05112 25-153, looked up)
Interleukin-4: HKCDITLQEIIKTLNSLTEQKTLCTELTVTDIFAASKNTTEKETFCRAATVLRQFYSHHEKDTRCLGATAQQFHRHKQLIRFLKRLDRNLWGLAGLNSCPVKEANQSTLENFLERLKTIMREKYSKCSS
acetylation of H3K9 in CD8+ T cells ([7]; IL-4 10 ng/ml, p<0.05): slight but significant decrease
acetylation of H3K14 ([7]; mafosfamide […] or IL-4 10 ng/ml): Neither mafosfamide nor IL-4 treatment resulted in a change
